Results as given in patent US20230219946A1, “PYRIMIDIN-4(3H)-ONE HETEROCYCLIC COMPOUND, PREPARATION METHOD THEREOF, AND PHARMACEUTICAL USE THEREOF” (Beijing Innocare Pharma Tech Co., Ltd., priority 2020, published 2023).
Where a name gives a salt, the structure may show the parent alone.

Legend:
[1] = test system: human non-small cell lung cancer cell line NCI-H358; assay: NCI-H358 cell proliferation inhibition (luminescent cell viability assay, CTG); type: cell-based; details: 120 h, NCI-H358 cells, 5 days, CellTiter-Glo
Method: Determination of NCI-H358 cell proliferation inhibition
The effect of the compound of the present invention on proliferation of human non-small cell lung cancer cell line NCI-H358 is evaluated by luminescent cell viability assay.
(§1) The experimental method is outlined as follows:
The compound was dissolved in DMSO (Sigma, Cat. No. D5879) and diluted to 5 mM. The resulting solution was serially diluted 4-fold with DMSO to a minimum concentration of […], and each concentration point was diluted 50-fold with RPMI 1640 Medium (Thermo Fisher Scientific, Cat. No. 11995073). When the IC50 value of the compound was low, the initial concentration of the compound was further reduced.
NCI-H358 cells (ATCC, Cat. No. CRL-5807) were cultured in RPMI 1640 Complete Medium [RPMI 1640 Medium was supplemented with 10% FBS (GBICO, Cat. No. 10099-141) and 100 units/mL Penicillin-Streptomycin (Thermo Fisher Scientific, Cat. No. 15140122)]. The cells (15,000 cells/mL) were seeded in 90 μL of Complete Medium on a 96-well plate. After culturing overnight, 10 μL of compound solution was added to each well and cultured at 37° C. in a 5% CO2 incubator for 5 days. According to the instruction from the CellTilter-Glo (CTG) kit (Promega, Cat. No. G7572), the cell culture plate was removed from incubator and equilibrated to room temperature. The cells were lysed fully with 50 μL of CTG reagent and placed at room temperature for 10 min. A luminescence signal was read by the microplate reader (EnVision, Perkin Elmer). […] An inhibition curve of the compound was plotted by XLfit software and the inhibitory IC50 was calculated.

[2] = target: T1, Recombinant human SHP2 full-length protein (Homo sapiens, UniProt Q06124); assay: SHP2 activity inhibition measurement (fluorescence detection, surrogate substrate DiFMUP); type: biochemical; details: recombinant human SHP2 full-length protein activated with diphosphopeptide
T1 construct: Recombinant human SHP2 full-length protein
T1 sequence (Q06124 1-593): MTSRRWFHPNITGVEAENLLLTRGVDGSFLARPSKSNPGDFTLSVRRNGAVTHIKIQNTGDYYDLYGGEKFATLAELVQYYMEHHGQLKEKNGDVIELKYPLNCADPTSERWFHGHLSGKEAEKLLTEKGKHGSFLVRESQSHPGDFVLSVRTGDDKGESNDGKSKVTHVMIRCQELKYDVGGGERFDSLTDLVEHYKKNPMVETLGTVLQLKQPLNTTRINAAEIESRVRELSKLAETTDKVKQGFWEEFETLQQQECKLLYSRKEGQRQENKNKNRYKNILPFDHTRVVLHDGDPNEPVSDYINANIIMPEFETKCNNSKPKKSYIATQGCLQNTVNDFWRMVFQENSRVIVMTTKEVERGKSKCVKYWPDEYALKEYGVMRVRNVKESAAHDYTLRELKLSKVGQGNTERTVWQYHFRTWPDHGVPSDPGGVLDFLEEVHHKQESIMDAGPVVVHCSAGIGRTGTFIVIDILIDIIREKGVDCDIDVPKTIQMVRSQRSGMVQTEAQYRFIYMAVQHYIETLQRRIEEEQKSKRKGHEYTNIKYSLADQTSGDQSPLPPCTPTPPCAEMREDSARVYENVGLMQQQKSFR
Method: SHP2 activity inhibition measurement
The effect of the compound of the present invention on SHP2 activity is evaluated by rapid fluorescence detection method using the surrogate substrate DiFMUP.
as §1
Recombinant human SHP2 full-length protein was expressed and purified by the protein purification and identification platform of Tsinghua University; diphosphopeptide (H2N-LN(pY)IDLDLV-(dPEG8)LST(pY)ASINFQK-amide) was synthesized by Nanjing GenScript Biotechnology Co., Ltd.; surrogate substrate DiFMUP was purchased from Thermo Fisher Scientific (Cat. No. D6567); reaction buffer contained the following components: 60 mM HEPES (pH 7.2), 75 mM NaCl, 75 mM KCl, 1 mM EDTA, 0.05% TWEEN 20, and 5 mM DTT.
The compound was dissolved in DMSO (Sigma, Cat. No. D5879) and diluted to 100 μM. The resulting solution was serially diluted 4-fold with DMSO to a minimum concentration of 6.1 nM, and each concentration point was diluted 25-fold with the reaction buffer.
10 μL of compound solution and 10 μL of 0.25 nM SHP2 protein solution were added to a 384-well microplate (Corning, Cat. No. 3575), mixed well, and incubated at room temperature for 30 min. 10 μL of 0.5 μM diphosphopeptide (dissolved in the reaction buffer) was added, mixed well, and incubated at room temperature for 30 to 60 min. Subsequently, 10 μL of 60 μM DiFMUP solution (dissolved in the reaction buffer) was added, mixed well, and let stand at room temperature. After 30 min, fluorescence signals were measured at 340 nm (excitation wavelength)/450 nm (emission wavelength) using a microplate reader (EnSpire, Perkin Elmer). The fluorescence intensity value was positively correlated with the degree of dephosphorylation of the substrate, thereby reflecting the catalytic activity of SHP2. […] An inhibition curve of the compound was plotted by XLfit software and the inhibitory IC50 was calculated.

hERG potassium channel = hERG potassium channel (Homo sapiens, UniProt Q12809); details: 3 μM test compound, whole-cell patch clamp, HEK293-hERG, room temperature
Sequence of hERG potassium channel (Q12809 whole entry): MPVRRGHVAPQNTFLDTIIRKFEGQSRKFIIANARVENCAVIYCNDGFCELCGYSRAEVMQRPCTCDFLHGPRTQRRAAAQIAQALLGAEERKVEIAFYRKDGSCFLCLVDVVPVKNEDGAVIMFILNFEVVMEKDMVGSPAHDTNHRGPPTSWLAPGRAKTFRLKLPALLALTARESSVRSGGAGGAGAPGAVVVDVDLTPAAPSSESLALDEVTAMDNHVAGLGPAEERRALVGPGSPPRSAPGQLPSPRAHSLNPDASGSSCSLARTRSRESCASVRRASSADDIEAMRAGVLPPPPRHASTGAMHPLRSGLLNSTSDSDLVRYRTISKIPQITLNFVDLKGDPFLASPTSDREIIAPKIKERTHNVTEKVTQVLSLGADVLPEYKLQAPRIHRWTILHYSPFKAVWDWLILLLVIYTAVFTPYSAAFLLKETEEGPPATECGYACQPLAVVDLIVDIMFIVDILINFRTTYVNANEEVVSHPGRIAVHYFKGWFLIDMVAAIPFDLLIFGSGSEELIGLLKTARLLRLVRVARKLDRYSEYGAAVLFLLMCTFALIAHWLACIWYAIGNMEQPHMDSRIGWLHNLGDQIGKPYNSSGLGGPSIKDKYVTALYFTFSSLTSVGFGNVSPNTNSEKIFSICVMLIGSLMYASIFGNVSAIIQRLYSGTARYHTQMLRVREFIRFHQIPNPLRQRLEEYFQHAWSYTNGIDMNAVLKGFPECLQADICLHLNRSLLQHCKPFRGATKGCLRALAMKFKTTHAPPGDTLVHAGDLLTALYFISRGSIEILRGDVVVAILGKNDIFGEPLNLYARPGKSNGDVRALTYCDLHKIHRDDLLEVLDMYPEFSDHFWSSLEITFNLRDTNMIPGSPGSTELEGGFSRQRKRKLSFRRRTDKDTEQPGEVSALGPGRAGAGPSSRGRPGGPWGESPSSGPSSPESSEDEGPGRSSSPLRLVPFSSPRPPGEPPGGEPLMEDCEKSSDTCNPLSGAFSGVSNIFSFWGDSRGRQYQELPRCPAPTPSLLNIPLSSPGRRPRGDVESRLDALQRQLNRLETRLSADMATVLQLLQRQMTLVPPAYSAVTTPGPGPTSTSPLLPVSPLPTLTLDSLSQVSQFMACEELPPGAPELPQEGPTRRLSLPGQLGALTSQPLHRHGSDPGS
Method: All electrophysiological experiments were conducted at room temperature.

## Cn1cc2c(Cl)c(Sc3cnc(N4CCC5(CCC[C@H]5N)CC4)n(C)c3=O)ccc2n1 [Compound 7, (R)-2-(1-amino-8-azaspiro[4.5]decan-8-yl)-5-((4-chloro-2-methyl-2H-indazole-5-yl)thio)-3-methylpyrimidin-4(3H)-one hydrochloride]
[1]
  IC50: 575 nM
[2]
  IC50: 12 nM
hERG potassium channel
  hERG current inhibition percentage at 3 μM solubility (n = 2): 10%
